# Values of other authors, collected in patent US11730774B2, “Bacterial biofilms and cancer” (THE JOHNS HOPKINS UNIVERSITY, priority 2018, dated 2023).
# Tested on: bacteria
# Settings: 6-week-old mice, water containing 500 mg/L cefoxitin for 48 hours; by 24 hours
smiles,measurement,value
CO[C@@]1(NC(=O)Cc2cccs2)C(=O)N2C(C(=O)O)=C(COC(N)=O)CS[C@@H]21 [Cefoxitin],detectable bacteria by culture or 16S rRNA qPCR,absence of detectable bacteria
